Values of other authors, collected in patent US20040219231A1, “Production of concentrated biocidal solutions” (priority 2000, published 2004).

Columns and labels:
[1] = not given; remark: listed apart in the source

## CC1(C)C(=O)N(Cl)C(=O)N1Br [BCDMH, 1,3-bromochloro-5,5-dimethylhydantoin]
other
  solubility in water: around 0.15%

## BrBr [Bromine (Br2), Bromine]
[1]
  Vapor Pressure (25° C.): 214 mm

## ClBr [Bromine Chloride (BrCl), Bromine Chloride]
[1]
  Vapor Pressure (25° C.): 1800 mm
